The experiment concerns the target BCL2 (Homo sapiens (Human), UniProt P10415). The experiment can be described thus: Molecular level activity test of anti-apoptotic protein BCL2 (HTRF, binding to Bim peptide). The settings on record: HTRF, binding of BCL2 to Bim peptide; read-out: BCL2 nM (inhibitory activity, IC50). The method, boiled down: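 Signal comes from proximity of anti-His-labelled BCL2 and streptavidin-XL665-bound biotin-BIM peptide. Test compounds, added in 2% DMSO, were preincubated with protein and peptide for one hour; detection reagents then incubated four hours at room temperature before reading.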
Chain of BCL2 (P10415 whole entry): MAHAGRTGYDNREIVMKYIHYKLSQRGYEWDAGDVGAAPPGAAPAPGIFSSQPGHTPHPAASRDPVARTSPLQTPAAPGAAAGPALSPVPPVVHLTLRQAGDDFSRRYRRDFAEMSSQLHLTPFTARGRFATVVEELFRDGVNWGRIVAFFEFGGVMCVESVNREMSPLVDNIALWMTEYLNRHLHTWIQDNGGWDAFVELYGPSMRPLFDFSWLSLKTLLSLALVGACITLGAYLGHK
In the case of `COc1ccc(CN2CCN(C3CC4(CCN(c5cc(Oc6cnc7[nH]ccc7c6)c(C(=O)NS(=O)(=O)c6cc([N+](=O)[O-])c(NC[C@H]7CC[C@](C)(O)CC7)c7occc67)cn5)CC4)C3)[C@H](c3ccccc3C(C)C)C2)cc1` [compound 139, 4-((1H-pyrrolo[2,3-b]pyrid-5-yl)oxy)-N-((7-((((1r, 4r)-4-hydroxy-4-methylcyclohexyl)methyl)amino)-6-nitrobenzofuran-4-yl)sulfonyl)-6-(2-((R)-2-(2-isopropylphenyl)-4-(4-methoxybenzyl)piperazin-1-yl)-7-azaspiro[3.5]non-7-yl) nicotinamide], the IC50 was less than 10 nM.

`COc1ccc(CN2CCN(C3CC4(CCN(c5cc(Oc6cnc7[nH]ccc7c6)c(C(=O)NS(=O)(=O)c6cc([N+](=O)[O-])c(NC[C@H]7CC[C@](C)(O)CC7)c7scnc67)cn5)CC4)C3)[C@H](c3ccccc3C(C)C)C2)cc1` [compound 140, 4-((1H-pyrrolo[2,3-b]pyrid-5-yl)oxy)-N-((7-((((1r, 4r)-4-hydroxy-4-methylcyclohexyl)methyl)amino)-6-nitrobenzo[d]thiazol-4-yl)sulfonyl)-6-(2-((R)-2-(2-isopropylphenyl)-4-(4-methoxybenzyl)piperazin-1-yl)-7-azaspiro[3.5]non-7-yl) nicotinamide]: the IC50 is less than 10 nM. For `COc1ccc(CN2CCN(C3CC4(CCN(c5cc(Oc6cnc7[nH]ccc7c6)c(C(=O)NS(=O)(=O)c6cc([N+](=O)[O-])c(NCC7(F)CCOCC7)c7n[nH]c(=O)cc67)cc5F)CC4)C3)[C@H](c3ccccc3C(C)C)C2)cc1` [compound 141, (R)-2-((1H-pyrrolo[2,3-b]pyrid-5-yl)oxy)-5-fluoro-N-((8-(((4-fluorotetrahydro-2H-pyran-4-yl)methyl)amino)-7-nitro-3-oxo-2,3-misoline-5-yl)sulfonyl)-4-(2-(2-(2-isopropylphenyl)-4-(4-methoxybenzyl)piperazin-1-yl)-7-azaspiro[3.5]non-7-yl)benzamide], the IC50 is less than 10 nM.

`COc1ccc(CN2CCN(C3CC4(CCN(c5cc(Oc6cnc7[nH]ccc7c6)c(C(=O)NS(=O)(=O)c6cc([N+](=O)[O-])c(NCC7(F)CCOCC7)c7c6OCC7)cc5F)CC4)C3)[C@H](c3ccccc3C(C)C)C2)cc1` [compound 142, (R)-2-((1H-pyrrolo[2,3-b]pyrid-5-yl)oxy)-5-fluoro-N-((4-(((4-fluorotetrahydro-2H-pyran-4-yl)methyl)amino)-5-nitro-2,3-dihydrobenzofuran-7-yl)sulfonyl)-4-(2-(2-(2-isopropylphenyl)-4-(4-methoxybenzyl)piperazin-1-yl)-7-azaspiro[3.5]non-7-yl)benzamide]: the IC50 is less than 10 nM. The value for `COc1ccc(CN2CCN(C3CC4(CCN(c5cc(Oc6cnc7[nH]ccc7c6)c(C(=O)NS(=O)(=O)c6cc([N+](=O)[O-])c(NCC7(F)CCOCC7)c7ccoc67)cc5F)CC4)C3)[C@H](c3ccccc3C(C)C)C2)cc1` [compound 143, (R)-2-((1H-pyrrolo[2,3-b]pyrid-5-yl)oxy)-5-fluoro-N-((4-(((4-fluorotetrahydro-2H-pyran-4-yl)methyl)amino)-5-nitrobenzofuran-7-yl)sulfonyl)-4-(2-(2-(2-isopropylphenyl)-4-(4-methoxybenzyl)piperazin-1-yl)-7-azaspiro[3.5]non-7-yl)benzamide] was less than 10 nM. As for `COc1ccc(CN2CCN(C3CC4(CCN(c5ccc(C(=O)NS(=O)(=O)c6cc([N+](=O)[O-])c(NCC7(F)CCOCC7)c7c6OCO7)c(Oc6cnc7[nH]ccc7c6)c5)CC4)C3)[C@H](c3ccccc3C(C)C)C2)cc1` [compound 147, (R)-2-((1H-pyrrolo[2,3-b]pyrid-5-yl)oxy)-N-((7-(((4-fluorotetrahydro-2H-pyran-4-yl)methyl)amino)-6-nitrobenzo[d][1,3]dioxocyclopent-4-yl)sulfonyl)-4-(2-(2-(2-isopropylphenyl)-4-(4-methoxybenzyl)piperazin-1-yl)-7-azaspiro[3.5]non-7-yl)benzamide], the 50% inhibitory concentration (IC50) is less than 10 nM. In the case of `COc1ccc(CN2CCN(C3CC4(CCN(c5ccc(C(=O)NS(=O)(=O)c6cc([N+](=O)[O-])c(NC[C@H]7COCCO7)c7c6OCO7)c(Oc6cnc7[nH]ccc7c6)c5)CC4)C3)[C@H](c3ccccc3C(C)C)C2)cc1` [compound 148, N-((7-((((S)-1,4-dioxan-2-yl)methyl)amino)-6-nitrobenzo[d][1,3]dioxocyclopent-4-yl)sulfonyl)-2-((1H-pyrrolo[2,3-b]pyrid-5-yl)oxy)-4-(2-((R)-2-(2-isopropylphenyl)-4-(4-methoxybenzyl)piperazin-1-yl)-7-azaspiro[3.5]non-7-yl)benzamide], the IC50 was less than 10 nM.

In the case of `COc1ccc(CN2CCN(C3CC4(CCN(c5cc(Oc6cnc7[nH]ccc7c6)c(C(=O)NS(=O)(=O)c6cc([N+](=O)[O-])c(NC[C@H]7COCCO7)c7c6OCO7)cn5)CC4)C3)[C@H](c3ccccc3C(C)C)C2)cc1` [compound 151, N-((7-((((S)-1,4-dioxan-2-yl)methyl)amino)-6-nitrobenzo[d][1,3]dioxocyclopent-4-yl)sulfonyl)-4-((1H-pyrrolo[2,3-b]pyrid-5-yl)ox)-6-(2-((R)-2-(2-isopropylphenyl)-4-(4-methoxybenzyl)piperazin-1-yl)-7-azaspiro[3.5]non-7-yl) nicotinamide], the IC50 was less than 10 nM. As for `COc1ccc(CN2CCN(C3CC4(CCN(c5cc(Oc6cnc7[nH]ccc7c6)c(C(=O)NS(=O)(=O)c6ccc(NCC7(F)CCOCC7)c([N+](=O)[O-])c6)cc5F)CC4)C3)[C@@H](c3ccccc3C(C)C)C2)cc1` [compound 153, (S)-2-((1H-pyrrolo[2,3-b]pyrid-5-yl)oxy)-5-fluoro-N-((4-(((4-fluorotetrahydro-2H-pyran-4-yl)methyl)amino)-3-nitrophenyl)sulfonyl)-4-(2-(2-(2-isopropylphenyl)-4-(4-methoxybenzyl)piperazin-1-yl)-7-azaspiro[3.5]non-7-yl)benzamide], the IC50 is less than 10 nM. Consider `COc1ccc(CN2C[C@@H](c3ccccc3C(C)C)N(C3CC4(CCN(c5cc(Oc6cnc7[nH]ccc7c6)c(C(=O)NS(=O)(=O)c6ccc(NCC7(F)CCOCC7)c([N+](=O)[O-])c6)cc5F)CC4)C3)C[C@@H]2C)cc1` [compound 154, 2-((1H-pyrrolo[2,3-b]pyrid-5-yl)oxy)-5-fluoro-N-((4-(((4-fluorotetrahydro-2H-pyran-4-yl)methyl)amino)-3-nitrophenyl)sulfonyl)-4-(2-((2R,5S)-2-(2-isopropylphenyl)-4-(4-methoxybenzyl)-5-methylpiperazin-1-yl)-7-azaspiro[3.5]non-7-yl)benzamide], for which the IC50 was less than 10 nM. Consider `COc1ccc(CN2C[C@@H](c3ccccc3C(C)C)N(C3CC4(CCN(c5cc(Oc6cnc7[nH]ccc7c6)c(C(=O)NS(=O)(=O)c6ccc(NCC7(F)CCOCC7)c([N+](=O)[O-])c6)cc5F)CC4)C3)C[C@H]2C)cc1` [compound 155, 2-((1H-pyrrolo[2,3-b]pyrid-5-yl)oxy)-5-fluoro-N-((4-(((4-fluorotetrahydro-2H-pyran-4-yl)methyl)amino)-3-nitrophenyl)sulfonyl)-4-(2-((2R,5R)-2-(2-isopropylphenyl)-4-(4-methoxybenzyl)-5-methylpiperazin-1-yl)-7-azaspiro[3.5]non-7-yl)benzamide], for which the IC50 is less than 10 nM.
